Experimental data from paper PMC10791743, “Selective CK1α degraders exert antiproliferative activity against a broad range of human cancer cell lines” (Nature Communications, 2024).
Where “and” joins values, the source holds several entries; their conditions need not be identical. Equal values may be shown once.

Columns and labels:
[1] = test system: panel of 9 human cancer cell lines (HD-MB03, MB004, MB002, MHH-CALL4, MOLM-13, TF-1, HEL, OCI-AML3, AML193); experiment: Molecular glue library screening, CellTiter-Glo cell viability, 72 h; type: cell-based; details: CTG, dose-response
Description: We screened our molecular glue library (3630 compounds) against a panel of 9 pediatric cancer cell lines to identify molecules displaying cell-selective sensitivities. In addition to the four cell lines we previously described (MB002, MB004, HD-MB03, and MHHCALL-4)[27], we included five additional AML cell lines (MOLM-13, TF-1, HEL, OCI-AML3, and AML193) to cover a broader range of genetic diversity and cancer vulnerabilities. The library screening was performed in high throughput (384-well plates) by incubating the cells with compounds for 72 h and assessing cell viability via CellTiter-Glo (CTG) in a dose–response manner, as reported previously.
The primary screen was performed in 384-well format using the CellTiter Glo (CTG) luminescent cell viability assay (Promega) as previously described. 3630 compounds from the St. Jude proprietary molecular glue library were screened against 9 human cancer cell lines (HD-MB03, MB004, MB002, MHH-CALL4, MOLM-13, TF-1, HEL, OCI-AML3, AML193). Each cell line was cultured in the complete medium recommended by the vendor and seeded in Corning 8804 BC white 384-well assay plates at densities of 1000, 1000, 1500, 7500, 1250, 156, 625, 1250, 1250 cells per well for HD-MB03, MB004, MB002, MHH-CALL4, MOLM-13, TF-1, HEL, OCI-AML, AML193, respectively. After overnight incubation at 37 °C in a humidified 5% CO2 incubator, cells were treated with compounds in dose–response format using a Pintool on a Biomek FX^P Laboratory Automation Workstation (Beckman Coulter). After 72 h of incubation, cell proliferation was assessed using a CellTiter-Glo (CTG) luminescent cell viability assay (Promega) according to the manufacturer’s instructions. Luminescence signal was measured using an EnVision plate reader (PerkinElmer).

[2] = test system: MOLM-13 cells; experiment: MOLM-13 cell viability assay (CTG, 72 h); type: cell-based, human; parameters: key to Cell viability in MOLM-13 cells / cell viability, dose-response replicate values: % viability = 100 − % activity, normalized to controls; details: for Cell viability in MOLM-13 cells: Lenalidomide series
Description: The primary screen was performed in 384-well format using the CellTiter Glo (CTG) luminescent cell viability assay (Promega) as previously described. […] After overnight incubation at 37 °C in a humidified 5% CO2 incubator, cells were treated with compounds in dose–response format using a Pintool on a Biomek FX^P Laboratory Automation Workstation (Beckman Coulter). […] Luminescence signal was measured using an EnVision plate reader (PerkinElmer). […]
number per well and incubated overnight at 37 °C in a humidified 5 % CO2 incubator. Compounds were transferred to the assay plate from a dose-response plate using a Labcyte Echo 650 Acoustic Liquid Handler (Beckman Coulter , USA). […]
using Promega’s CellTiter-Glo reagent according to the manufacturer’s recommendation.
Luminescence was measured on the Envision plate reader (PerkinElmer, USA). Raw luminescence relative light unit (RLU) values for each compound at each concentration were normalized to obtain % activity using the following equation (1): 100 × [(mean(negctrl) – compound)/(mean (negctrl) – mean (posctrl))]. The % activity was converted to % viability using the following equation (2):
(100 – % activity), and then pooled from replicate experiments prior to fitting. Here, negctrl and posctrl refer to the negative (DMSO) and positive controls (staurosporine) on each plate. Dose-response curves were fit to the Hill equation using the GraphPad Prism (version 10). […]

With `Nc1cccc2c1CN(C1CCC(=O)NC1=O)C2=O` (centres unmarked) [lenalidomide, reference compound] the “Cell viability across the panel of AL and MB cell lines” value [1] was “inactive”, the “Effect on MOLM-13 cell viability (cytotoxicity)” value ([2]; CTG 72 h) was “did not show appreciable cytotoxicity” and the “Cell viability in MOLM-13 cells” value ([2]; Conc 0.00055545) was 109.633 and 88.9306 and 94.0401. The “Cell viability in MOLM-13 cells” value ([2]; Conc 0.00166636) was 93.576 and 90.3639 and 96.1559, the “Cell viability in MOLM-13 cells” value ([2]; Conc 0.00499909) was 90.3167 and 93.3429 and 87.1 and the “Cell viability in MOLM-13 cells” value ([2]; Conc 0.0149973) was 104.685 and 79.7406 and 92.7317. For the same compound, the “Cell viability in MOLM-13 cells” value ([2]; Conc 0.0449918) was 87.2291 and 84.4121 and 81.9827, the “Cell viability in MOLM-13 cells” value ([2]; Conc 0.134975) was 84.7339 and 87.0092 and 84.0481 and the “Cell viability in MOLM-13 cells” value ([2]; Conc 0.404926) was 83.6134 and 73.5361 and 80.3173. For the same compound, the “Cell viability in MOLM-13 cells” value ([2]; Conc 1.21478) was 75.0522 and 81.9691 and 77.2827 and the “Cell viability in MOLM-13 cells” value ([2]; Conc 3.64433) was 84.7767 and 72.5751 and 71.171.
